Patent US20220243211A1, “PEPTIDE NUCLEIC ACID COMPOSITIONS WITH MODIFIED HOOGSTEEN BINDING SEGMENTS AND METHODS OF USE THEREOF” (Yale University, priority 2019, published 2022)
[PNA-N] = peptide nucleic acid monomer (N: the base)

What was measured:
[1] = system: CFTR function in the nasal epithelium; experiment: Nasal potential difference (NPD) in CF mice after intranasal NPs; format: in vivo, mouse; details: F508del CF mice, intranasal PBAE/PLGA/MPG NPs with PNA/donor DNA
Description: FIG. 4 is a dot plot showing functional correction of CFTR with modified NPs in vivo. Mice were treated by intranasal administration with NPs. Nasal potential difference measurements were evaluated before and after NP treatments. The response to a 0Cl+amiloride+forksolin perfusate after NP treatment was compared to the response prior to treatment. Pre- and post-treatment changes in NPD were compared using paired t tests for each mouse. Each mouse is represented with an individual data point; in addition, the mean is shown with a horizontal line, surround by error bars showing the standard error of the mean. In the last panel, nasal potential difference changes in wild type mice are shown for comparison. […]
To determine if gamma tcPNAs were more efficient editing agents than classic PNA in vivo, CF mice were treated intranasally with PBAE/PLGA/MPG NPs containing mCF-PNA/DNA or γmCF-PNA-h/DNA on days 1, 3, 6, and 9. Subsequently, CF mice were assessed for CFTR function in the nasal epithelium by measuring the nasal potential difference (NPD), a non-invasive assay used to detect cAMP-stimulated chloride transport in vivo. […] NPD is assessed in all mice prior to treatment with NPs and reassessed after treatment such that alterations in this measure can be used as a surrogate of restored CFTR function.

[2] = Zeta potential and hydrodynamic diameter of formulated NPs by dynamic light scattering; format: physicochemical; details: NPs containing PNA/donor DNA, PBS buffer, n = 3; for Z Av Diameter: dynamic light scattering
Description: Blank NPs containing no PNA and a mismatch donor DNA as a control were prepared as a control. The mismatched donor DNA was purposely added into blank NPs because addition of donor DNA helps to produce a similar surface charge on the control NPs as on the test NPs encapsulated with PNA/donor DNA combinations. […] All NP in the diameters were in the range of 200-350 nm, as measured by dynamic light scattering (Table 1), consistent with previous measurements (McNeer, et al., Nat Commun 6, 6952 (2015), Fields, et al., Adv Healthc Mater 4, 361-366 (2015), Fields, et al., J Control Release 164, 41-48 (2012)). PNA/DNA-loaded NPs were cationic (Fields, et al., Adv Healthc Mater 4, 361-366 (2015), Fields, et al., J Control Release 164, 41-48 (2012)) for PBAE/PLGA/MPG NPs (Table 1).

[3] = mouse, in vivo
Description: To collect the lungs for histopathology, a midline incision from sternum to diaphragm was performed and, to remove blood from the pulmonary circulation, PBS+heparin was perfused via the right ventricle using a 20 g needle. Lungs were inflated with 0.5% low melt agarose at constant pressure, then removed from the chest and placed in fixative. Paraffin embedded tissues were stained with hemotoxylin and eosin stain for imaging.
To investigate whether NPs could effectively deliver the gene editing reagents to the lung TAMRA-conjugated mouse specific PNA (γmCF PNA-h) and mouse donor DNA into PBAE/PLGA/MPG NPs were formulated. After intranasal administration of γmCF PNA-h/DNA NPs into CF mice, the lungs were harvested and PNA uptake was assessed by fluorescence microscopy.

Substance: H-KKK-JTTTTJJJ-OOO-CCCTTTTCAAGGTGAGTAG-KKK-NH2 [mCF PNA] (NTTTTNNNCCCTTTTCAAGGTGAGTAG; listed as DNA, chemistry not fully specified)
- treated mice showing response to cyclic AMP stimulation (cyclic AMP activated Cl− conductance) in NPD [1]: 50%
- Zeta Potential [2]: 46.17 mV
- Z Av Diameter [2]: 317.8 nm

Substance: H-KKK-JTTTTJJJ-OOO-CCCTTTTCAAGGTGAGTAG-KKK-NH2 [γmCF PNA-h] (NTTTTNNNCCCTTTTCAAGGTGAGTAG; all [PNA-N], the base at N not given here; lysine tripeptides at both ends, OOO linker, some gamma-modified PNA monomers, further chemistry not fully specified) [tail clamp PNA targeting mouse CFTR gene with MPγ monomers in Hoogsteen domain]
- histology of nasal epithelia / respiratory tract [3]: No significant differences in the histology of the nasal epithelia
- treated mice showing response to cyclic AMP stimulation (cyclic AMP activated Cl− conductance) in NPD [1]: 79%
- Zeta Potential [2]: 36.17 mV
- Z Av Diameter [2]: 349.1 nm
